Assay results from article PMC6945111, “Cryo-EM Structure of Nucleotide-Bound Tel1^ATM Unravels the Molecular Basis of Inhibition and Structural Rationale for Disease-Associated Mutations” (Structure(London, England:1993), 2020).

Key:
[1] = target: T1, Tel1 (Saccharomyces cerevisiae, UniProt P38110); experiment: cryo-EM structure; type: binding; details: 3.7-3.9 A resolution; 1 mM AMP-PNP, 4 mM Mg(OAc)2, pH 7.4, on ice; kinase active site, one Mg2+ modelled, 1 ligand per monomer
T1 construct: full-length 2787 residues, homodimer; expressed as GST-Tel1 (pBL602, Gal promoter) in S. cerevisiae PY265

[2] = target: Saccharomyces cerevisiae Tel1 (Saccharomyces cerevisiae) (UniProt P38110); experiment: cryo-EM structure; Tel1 100 nM with 1 mM AMP-PNP and 4 mM Mg(OAc)2, diluted into 50 mM Tris-HCl, 50 mM NaCl, pH 7.4; C2 symmetry applied; homodimer

T1 sequence (P38110 whole entry): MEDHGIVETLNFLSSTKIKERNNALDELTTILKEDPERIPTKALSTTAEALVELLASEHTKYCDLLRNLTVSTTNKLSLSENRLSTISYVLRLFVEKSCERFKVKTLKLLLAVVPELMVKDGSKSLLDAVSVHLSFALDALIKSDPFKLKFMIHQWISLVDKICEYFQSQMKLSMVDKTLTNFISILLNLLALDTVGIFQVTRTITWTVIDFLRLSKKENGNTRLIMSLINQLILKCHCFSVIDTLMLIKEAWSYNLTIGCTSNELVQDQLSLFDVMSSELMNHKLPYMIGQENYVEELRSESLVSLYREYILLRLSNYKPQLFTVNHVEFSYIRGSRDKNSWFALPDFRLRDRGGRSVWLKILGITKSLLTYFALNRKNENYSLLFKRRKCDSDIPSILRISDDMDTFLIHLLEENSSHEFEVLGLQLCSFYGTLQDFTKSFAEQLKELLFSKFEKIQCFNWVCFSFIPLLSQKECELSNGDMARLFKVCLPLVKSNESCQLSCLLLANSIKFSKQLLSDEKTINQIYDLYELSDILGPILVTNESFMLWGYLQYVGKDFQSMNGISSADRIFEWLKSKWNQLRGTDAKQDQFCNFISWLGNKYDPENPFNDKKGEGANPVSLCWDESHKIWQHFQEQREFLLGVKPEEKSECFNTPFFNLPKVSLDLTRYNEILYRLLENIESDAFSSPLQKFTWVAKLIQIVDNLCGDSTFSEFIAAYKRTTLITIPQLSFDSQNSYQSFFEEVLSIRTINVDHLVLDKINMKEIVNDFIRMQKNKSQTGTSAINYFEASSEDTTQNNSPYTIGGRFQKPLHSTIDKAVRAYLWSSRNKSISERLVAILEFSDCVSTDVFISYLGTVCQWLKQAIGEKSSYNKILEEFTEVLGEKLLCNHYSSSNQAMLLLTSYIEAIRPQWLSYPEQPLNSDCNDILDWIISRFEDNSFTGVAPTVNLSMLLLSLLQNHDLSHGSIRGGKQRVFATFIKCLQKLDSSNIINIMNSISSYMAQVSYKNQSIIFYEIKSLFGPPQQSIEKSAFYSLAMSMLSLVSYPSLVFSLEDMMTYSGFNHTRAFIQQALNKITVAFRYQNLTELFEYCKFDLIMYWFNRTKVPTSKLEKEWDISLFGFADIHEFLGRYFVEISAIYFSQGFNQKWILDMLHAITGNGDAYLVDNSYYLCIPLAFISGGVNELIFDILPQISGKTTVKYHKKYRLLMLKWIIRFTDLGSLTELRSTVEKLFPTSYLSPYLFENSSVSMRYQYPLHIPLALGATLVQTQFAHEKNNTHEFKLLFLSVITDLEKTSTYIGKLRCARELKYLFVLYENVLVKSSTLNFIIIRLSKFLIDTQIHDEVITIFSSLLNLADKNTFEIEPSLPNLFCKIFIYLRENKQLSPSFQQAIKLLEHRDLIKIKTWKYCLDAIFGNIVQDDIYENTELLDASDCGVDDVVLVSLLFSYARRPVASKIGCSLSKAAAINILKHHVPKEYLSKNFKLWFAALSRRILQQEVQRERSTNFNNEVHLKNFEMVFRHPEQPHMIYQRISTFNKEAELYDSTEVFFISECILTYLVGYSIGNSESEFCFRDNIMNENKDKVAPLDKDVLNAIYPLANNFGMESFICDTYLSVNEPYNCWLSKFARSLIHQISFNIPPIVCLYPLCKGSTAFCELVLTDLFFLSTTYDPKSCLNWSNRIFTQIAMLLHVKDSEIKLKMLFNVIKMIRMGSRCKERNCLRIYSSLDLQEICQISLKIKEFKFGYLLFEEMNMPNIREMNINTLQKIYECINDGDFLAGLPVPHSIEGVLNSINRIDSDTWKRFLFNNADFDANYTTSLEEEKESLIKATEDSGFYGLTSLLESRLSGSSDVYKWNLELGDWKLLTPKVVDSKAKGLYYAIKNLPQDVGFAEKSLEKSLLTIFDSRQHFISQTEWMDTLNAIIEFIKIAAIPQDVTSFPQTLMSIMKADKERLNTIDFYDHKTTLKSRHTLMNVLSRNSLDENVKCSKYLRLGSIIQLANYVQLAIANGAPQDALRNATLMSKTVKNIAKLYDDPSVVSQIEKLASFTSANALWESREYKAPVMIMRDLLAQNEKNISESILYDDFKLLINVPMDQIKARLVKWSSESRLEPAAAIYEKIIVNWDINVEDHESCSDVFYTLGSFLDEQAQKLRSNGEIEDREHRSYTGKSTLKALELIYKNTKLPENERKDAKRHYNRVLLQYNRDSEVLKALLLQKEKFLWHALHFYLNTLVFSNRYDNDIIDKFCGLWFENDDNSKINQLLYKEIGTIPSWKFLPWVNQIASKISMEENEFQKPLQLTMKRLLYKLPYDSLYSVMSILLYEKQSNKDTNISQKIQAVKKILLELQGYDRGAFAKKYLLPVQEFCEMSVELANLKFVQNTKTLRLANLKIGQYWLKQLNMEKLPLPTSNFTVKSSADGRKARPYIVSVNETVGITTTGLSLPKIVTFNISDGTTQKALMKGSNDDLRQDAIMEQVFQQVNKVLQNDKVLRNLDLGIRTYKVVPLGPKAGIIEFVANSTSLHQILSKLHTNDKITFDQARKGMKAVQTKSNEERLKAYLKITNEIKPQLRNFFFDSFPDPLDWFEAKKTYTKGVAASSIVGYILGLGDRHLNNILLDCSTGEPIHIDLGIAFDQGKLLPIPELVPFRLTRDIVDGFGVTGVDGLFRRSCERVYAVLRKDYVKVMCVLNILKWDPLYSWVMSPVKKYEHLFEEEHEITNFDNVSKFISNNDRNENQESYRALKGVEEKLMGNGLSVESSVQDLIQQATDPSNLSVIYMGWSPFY

| stoichiometry N [2] | Molecule | cryo-EM structure [1] |
| --- | --- | --- |
| – | Nc1ncnc2c1ncn2[C@@H]1O[C@H](COP(=O)(O)OP(=O)(O)NP(=O)(O)O)[C@@H](O)[C@H]1O [AMP-PNP] | clear density for AMP-PNP |
| 2 | Saccharomyces cerevisiae Tel1, P38110 1-2787 | – |
